Assays:
S1PR1 = biological target: T1, S1PR1 (Homo sapiens, UniProt P21453); assay: In vitro S1PR1 agonistic activity (PathHunter cell line, chemiluminescence); type: cell-based; settings: for Emax: % activity relative to maximum control ligand; for EC50: agonist mode, 90-180 minutes at 37° C.
T1 construct: expressed in transfected cells
Description: Test Embodiment 1: In Vitro Evaluation of the Agonistic Activity of the Compounds of the Present Disclosure on S1PR1
Experimental Objective: To Detect the Agonistic Activity of Compounds on S1PR1
• 1. A PathHunter cell line was thawed according to standard procedures; • 2. the cells were inoculated in a 20 μL 384-well microplate and incubated at 37° C. for appropriate time. II. Agonist • 1. For agonist determination, cells were incubated with samples to be tested to induce a reaction; • 2. a storage solution to be tested was 5-fold diluted into a buffer; • 3. 5 μL of the 5-fold dilution was added to the cells and incubated at 37° C. for 90-180 minutes. The vehicle concentration was 1%. III. Signal Detection • 1. 12.5 μL or 15 μL of PathHunter detection reagent at a volume ratio of 50% was added at a time, and then incubated at room temperature for 1 hour to generate a detection signal; • 2. the microplate was read with a PerkinElmer Envision™ instrument for chemiluminescent signal detection. IV. Data Analysis • 1. Activity analysis of the compound was carried out by using CBIS data analysis kit (ChemInnovation, CA); • 2. Calculation formula: % activity=100%×(average test sample RLU−average vehicle RLU)/(average maximum control ligand−average vehicle RLU)

[1] = Pharmacokinetic evaluation in SD rats (intravenous injection and oral administration); type: in vivo; settings: Sprague-Dawley, plasma, SD rat, male
Description: Test Embodiment 2: Pharmacokinetic Evaluation of Compound in Rats
Experimental Objective: To Test the Pharmacokinetics of the Compound in SD Rats
Sprague Dawley rat (male, 200-300 g, 7-9 weeks old, Shanghai SLAC)
(§1) A standard protocol was used to test the pharmacokinetic characteristics of rodents after intravenous injection and oral administration of the compound. In the experiment, the candidate compound was prepared into a clear solution, and administrated to rats by single intravenous injection and oral administration. The vehicle for intravenous injection was a 5:95 DMSO and 10% hydroxypropyl β-cyclodextrin aqueous solution, and the vehicle for oral administration was a 0.5% w/v methylcellulose and 0.2% w/v tween 80 aqueous solution. Whole blood samples within 24 hours were collected, centrifuged at 3000 g for 15 minutes, and the supernatant was separated to obtain plasma samples. Four times the volume of acetonitrile solution containing internal standard was added thereto to precipitate protein. The mixture was centrifuged, and the supernatant was taken, and an equal volume of water was added thereto. Then the mixture was centrifuged and the supernatant was taken for injection. The blood drug concentration was quantitatively analyzed by LC-MS/MS analysis method, and pharmacokinetic parameters, such as peak concentration, clearance rate, tissue distribution, half-life, area under the drug-time curve and bioavailability, were calculated.

[2] = Pharmacokinetic evaluation in CD-1 mice (intravenous injection and oral administration); type: in vivo; settings: mouse, male, plasma
Description: Test Embodiment 3: Pharmacokinetic Evaluation of Compound in Mice
Experimental Objective: To Test the Pharmacokinetics of the Compound in CD-1 Mice
CD-1 mice (male, 20-40 g, 6-10 weeks old, Shanghai BK)
as §1, with “The” for “A”, “two mice” for “rats”, “3200” for “3000”, “10” for “15”, “concentration, tissue distribution,” for “concentration,”, “rate,” for “rate, tissue distribution,”

T1 sequence (P21453 whole entry): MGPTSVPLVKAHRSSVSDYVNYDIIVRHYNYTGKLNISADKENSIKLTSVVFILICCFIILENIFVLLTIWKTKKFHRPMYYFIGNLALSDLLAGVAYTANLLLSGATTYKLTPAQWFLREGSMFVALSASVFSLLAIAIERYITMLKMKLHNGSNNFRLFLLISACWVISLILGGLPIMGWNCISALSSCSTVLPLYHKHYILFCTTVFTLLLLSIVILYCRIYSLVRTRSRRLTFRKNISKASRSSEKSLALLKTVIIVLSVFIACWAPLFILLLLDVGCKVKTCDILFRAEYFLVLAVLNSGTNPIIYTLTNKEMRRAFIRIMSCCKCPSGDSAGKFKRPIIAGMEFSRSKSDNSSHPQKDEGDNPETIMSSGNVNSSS

CC(C)Oc1ncc(-c2nc(-c3cccc4c3CCC43CCN(C4CC(C(=O)O)C4)C3)no2)cc1C#N (centres unmarked) [Compound 10]
Emax (S1PR1): 92% | EC50 (S1PR1): 0.474 nM

CC(C)Oc1ncc(-c2nc(-c3cccc4c3CCC43CC(=O)N(CCO)C3)no2)cc1C#N (centres unmarked) [Compound 1]
Emax (S1PR1): 99.3% | EC50 (S1PR1): 0.134 nM | AUC(0-t) ([1]; PO 3.0 mg/kg, read-out: Area under the drug-time curve AUC0-last PO): 35.5 µM·h | half-life ([1]; PO 3.0 mg/kg, read-out: Half-life T1/2 (PO) (converted)): 7.22 h | clearance ([1]; intravenous 1.0 mg/kg / oral 3.0 mg/kg, read-out: Clearance rate CL): 1.66 mL/min/kg | Vd ([1]; intravenous 1.0 mg/kg / oral 3.0 mg/kg, read-out: Tissue distribution Vdss): 1.18 L/kg | bioavailability ([1]; intravenous 1.0 mg/kg, oral 3.0 mg/kg, read-out: Bioavailability F): 71.9% | Cmax ([1]; intravenous 1.0 mg/kg / oral 3.0 mg/kg, read-out: Peak concentration Cmax): 3100 ng/mL | Cmax ([2]; intravenous 0.5 mg/kg / oral 2.0 mg/kg, read-out: Peak concentration Cmax): 2830 ng/mL | AUC(0-t) ([2]; PO 2.0 mg/kg, read-out: Area under the drug-time curve AUC0-last PO): 21.3 µM·h | half-life ([2]; PO 2.0 mg/kg, read-out: Half-life T1/2 (PO) (converted)): 3.5 h | clearance ([2]; intravenous 0.5 mg/kg / oral 2.0 mg/kg, read-out: Clearance rate CL): 3.42 mL/min/kg | Vd ([2]; intravenous 0.5 mg/kg / oral 2.0 mg/kg, read-out: Tissue distribution Vdss): 0.902 L/kg | bioavailability ([2]; intravenous 0.5 mg/kg, oral 2.0 mg/kg, read-out: Bioavailability F): 100%

CC(C)Oc1ncc(-c2nc(-c3cccc4c3CCC43CC(=O)N(CCC(=O)O)C3)no2)cc1C#N (centres unmarked) [Compound 9]
Emax (S1PR1): 104% | EC50 (S1PR1): 0.613 nM

CC(C)Oc1ncc(-c2ncc(-c3cccc4c3CCC43CC(=O)N(CCO)C3)s2)cc1C#N (centres unmarked) [Compound 7]
Emax (S1PR1): 88.1% | EC50 (S1PR1): 2.84 nM

CC(C)Oc1ncc(-c2ncc(-c3cccc4c3CCC43CC(=O)N(CCO)C3)o2)cc1C#N (centres unmarked) [Compound 5]
Emax (S1PR1): 63.5% | EC50 (S1PR1): 24.3 nM

CC(C)Oc1ncc(-c2nnc(-c3cccc4c3CCC43CC(=O)N(CCO)C3)s2)cc1C#N (centres unmarked) [Compound 11]
Emax (S1PR1): 104% | EC50 (S1PR1): 6.12 nM

CC(C)Oc1ncc(-c2nsc(-c3cccc4c3CCC43CC(=O)N(CCO)C3)n2)cc1C#N (centres unmarked) [Compound 4]
Emax (S1PR1): 67.6% | EC50 (S1PR1): 20.9 nM

CC(C)Oc1ncc(-c2nc(-c3cccc4c3CCC43CC(=O)N(CCO)C3)no2)cc1Br (centres unmarked) [Compound 3]
Emax (S1PR1): 62.8% | EC50 (S1PR1): 4.46 nM

CC(C)Oc1ncc(-c2nc(-c3cccc4c3CCC43CC(=O)N(CC(=O)O)C3)no2)cc1C#N (centres unmarked) [Compound 8]
Emax (S1PR1): 110% | EC50 (S1PR1): 1.25 nM

CC(C)Oc1ncc(-c2ncc(-c3cccc4c3CCC43CC(=O)N(CCO)C3)cn2)cc1C#N (centres unmarked) [Compound 6]
Emax (S1PR1): 78.5% | EC50 (S1PR1): 7.1 nM
